Results on 1 molecule are retold here after publication PMC12933331, “A Cryptic Pocket Allosterically Modulates Oligosaccharide Binding to DC-SIGN” (JACS Au, 2026).

Format in all cases: binding
One test concerns the target T1, DC-SIGN CRD E358A (Homo sapiens, UniProt Q9NNX6, E358A).
T1 construct: acids 253-404 of DC-SIGN; His-tag (N); made in house
T1 sequence (Q9NNX6 253-404 E358A): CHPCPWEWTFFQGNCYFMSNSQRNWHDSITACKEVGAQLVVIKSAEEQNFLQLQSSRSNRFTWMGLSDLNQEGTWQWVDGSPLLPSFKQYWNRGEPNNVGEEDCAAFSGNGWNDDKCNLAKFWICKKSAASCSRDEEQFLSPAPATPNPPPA
Kind of test: 1H-15N HSQC NMR titration (CSP fitting). The method, then:
(§1) 1H-15N HSQC NMR. 1H-15N HSQC NMR spectra were collected with 256 increments in the nitrogen and 24 scans per increment and 2048 points in the direct dimension. The relaxation delay d1 was set to 1.0 s. The W5 WATERGATE pulse sequence was used for solvent suppression.3, 4 Experiments were performed at a CRD concentration of 200 μM in 20 mM MES, 40 mM NaCl, 10 mM CaCl2 (pH 6.0) supplemented with 10% D 2O and, if applicable, varying concentrations of ligands. Samples of apo DC -SIGN CRD were prepared as described for 1H-13C HSQC NMR experiments. A previously published resonance assignment of DC-SIGN CRD was transferred to the nearest neighbor in a reference spectrum recorded without ligand.5 Unassigned, overlapping or disappearing peaks were not assigned.
(§2) CSPs induced by mutations or ligands were calculated as previously described according to […]
(§3) The empirical weighing factor a was set to 0.15 for all calculations.
(§4) Dissociation constants (K Ds) were determined in titration experiments at five ligand concentratio ns […]
(§5) in the fast exchange regime were used for the fitting procedure via equation 4 in a global two - […]
(§6) with CSP max corresponding to the CSP values upon saturation and the bound protein fraction p b […]
(§7) CHESPA was performed as previously described .7 The chemical shift vector between apo and holo wildtype DC -SIGN CRD was used as reference perturbation to calculate the vector product to […]

In another test the target is T2, DC-SIGN CRD F313A (Homo sapiens, UniProt Q9NNX6, F313A).
T2 construct: acids 253-404 of DC-SIGN; His-tag (N); made in house
T2 sequence (Q9NNX6 253-404 F313A): T1 sequence (Q9NNX6 253-404 E358A) with F61A, A106E
Kind of test: 1H-15N HSQC NMR titration (CSP fitting). As for the experimental part:
as §1, §2, §3, §4, §5, §6, §7

The target in another test is T3, DC-SIGN CRD F359L (Homo sapiens, UniProt Q9NNX6, F359L).
T3 construct: acids 253-404 of DC-SIGN; His-tag (N); made in house
T3 sequence (Q9NNX6 253-404 F359L): T1 sequence (Q9NNX6 253-404 E358A) with A106E, F107L
Kind of test: 1H-15N HSQC NMR titration (CSP fitting). As for the experimental part: as §1, §2, §3, §4, §5, §6, §7

In another test the target is T4, DC-SIGN CRD I376V (Homo sapiens, UniProt Q9NNX6, I376V).
T4 construct: acids 253-404 of DC-SIGN; His-tag (N); made in house
T4 sequence (Q9NNX6 253-404 I376V limits assumed): T1 sequence (Q9NNX6 253-404 E358A) with A106E, I124V
Kind of test: 1H-15N HSQC NMR titration (CSP fitting). As for the experimental part:
as §1, §2, §3, §4, §5, §6, §7

In another test the target is T5, DC-SIGN CRD M270F (Homo sapiens, UniProt Q9NNX6, M270F).
T5 construct: acids 253-404 of DC-SIGN; His-tag (N); made in house
T5 sequence (Q9NNX6 253-404 M270F): T1 sequence (Q9NNX6 253-404 E358A) with M18F, A106E
Kind of test: 1H-15N HSQC NMR titration (CSP fitting). The method, then:
as §1, §2, §3, §4, §5, §6, §7

The target of another test is T6, DC-SIGN CRD Q323A (Homo sapiens, UniProt Q9NNX6, Q323A).
T6 construct: acids 253-404 of DC-SIGN; His-tag (N); made in house
T6 sequence (Q9NNX6 253-404 Q323A limits assumed): T1 sequence (Q9NNX6 253-404 E358A) with Q71A, A106E
Kind of test: 1H-15N HSQC NMR titration (CSP fitting). The method, then: as §1, §2, §3, §4, §5, §6, §7

Another test concerns the target T7, DC-SIGN CRD T314A (Homo sapiens, UniProt Q9NNX6, T314A).
T7 construct: acids 253-404 of DC-SIGN; His-tag (N); made in house
T7 sequence (Q9NNX6 253-404 T314A): T1 sequence (Q9NNX6 253-404 E358A) with T62A, A106E
Kind of test: 1H-15N HSQC NMR titration (CSP fitting). The method, then: as §1, §2, §3, §4, §5, §6, §7

The next test deals with T8, DC-SIGN CRD W364F (Homo sapiens, UniProt Q9NNX6, W364F).
T8 construct: acids 253-404 of DC-SIGN; His-tag (N); made in house
T8 sequence (Q9NNX6 253-404 W364F): T1 sequence (Q9NNX6 253-404 E358A) with A106E, W112F
Kind of test: 1H-15N HSQC NMR titration (CSP fitting). The method, then:
as §1, §2, §3, §4, §5, §6, §7

The target in a further test is T9, DC-SIGN ECD T314A (Homo sapiens, UniProt Q9NNX6, T314A).
T9 construct: acids 64 -404 of DC -SIGN; made in house
T9 sequence (Q9NNX6 64-404 T314A): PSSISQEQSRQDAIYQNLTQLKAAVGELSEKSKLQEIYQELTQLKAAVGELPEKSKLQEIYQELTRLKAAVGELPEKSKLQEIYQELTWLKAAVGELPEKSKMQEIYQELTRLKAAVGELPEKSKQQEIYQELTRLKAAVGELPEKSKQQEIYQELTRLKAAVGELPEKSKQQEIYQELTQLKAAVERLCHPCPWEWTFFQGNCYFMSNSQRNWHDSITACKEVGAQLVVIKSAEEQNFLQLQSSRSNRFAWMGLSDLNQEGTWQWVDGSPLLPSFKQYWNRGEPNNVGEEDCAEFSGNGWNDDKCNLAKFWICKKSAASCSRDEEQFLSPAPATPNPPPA
Kind of test: Plate-based horseradish peroxidase assay. The following applies: 1 µg mL-1 HRP, 25 mM CaCl2.

Substitutions are numbered along the chain they refer to.

Consider `OC[C@H]1OC(O)[C@@H](O)[C@@H](O)[C@@H]1O` (stereo partly drawn) [mannose], for which the Kd at DC-SIGN CRD E358A turned out to be 51.1 ± 4.9 mM; at DC-SIGN CRD F313A, 6 ± 0.5 mM; on DC-SIGN CRD F359L, 8.2 ± 0.8 mM; on DC-SIGN CRD I376V, 3.4 ± 0.2 mM; at DC-SIGN CRD M270F, 2.9 ± 0.4 mM; on DC-SIGN CRD Q323A, 3.5 ± 0.2 mM. Also, the results for the Kd at DC-SIGN CRD T314A and at DC-SIGN CRD W364F were 3.9 ± 0.1 mM and 5 ± 0.9 mM, respectively. Further, the “hill slope, inhibition of HRP binding” value at DC-SIGN ECD T314A was -2.1.
